Holding throughout (format): in vivo
Series [1] in a line: Plasma luteolin concentration after oral administration to rats. To be noted: male SD rat, 93 mg/kg PO; in comparison to luteolin (51 mg/kg PO) and luteolin-7-O-apiosyl glucoside (175 mg/kg PO), same aglycone amount; 0.5-8 hours; FIG. 12. How it is done: Luteolin (51 mg/kg, PO), luteolin-7-O-glucoside (93 mg/kg, PO) and luteolin-7-O-apiosyl glucoside (175 mg/kg, PO) were orally administered to rats (8 weeks old, male SD rat), the blood was collected just before the administration, and at 0.5 hours, 1 hour, 2 hours and 8 hours after the administration from the tail vein, and the plasma luteolin concentration was measured. Meanwhile, the doses of each of the luteolin and a glycoside thereof were the same in terms of the amount of luteolin that is an aglycone.

Series [2] relates to TGF-β1 (transforming growth factor) gene expression. The series is described as follows: Real time PCR of fibrosis marker gene TGF-β1 in ventricular tissue, angiotensin II rat model. The settings on record: corrected with GAPDH, Ang II + luteolin glycoside, FIG. 6. The procedure: (§1) Angiotensin II was continuously infused to an 8 week-old male SD rat, and the action of luteolin glycoside (luteolin-7-O-glucoside was used) to cardiac fibrosis and cardiomegaly in the acceleration state of oxidative stress was investigated. For the control group, rats were normally raised. For the angiotensin II group (Ang II group), an angiotensin II-continuous infusion pump was implanted subcutaneously in the rat, and continuous infusion was performed for 7 days. […]
(§2) The blood pressure was measured at the seventh day, the degree of the ventricular wall thickness was evaluated with echocardiographic examination, then the heart was removed, and the weights of the heart and the ventricle were measured. The reactive oxygen was evaluated with hydroethidine staining, and the degree of fibrosis was evaluated with Masson's trichrome staining. Gene expressions of the fibrosis marker, and the heart failure marker in the ventricular tissue were evaluated with real time PCR.
(§3) RNA was extracted from the ventricular tissue, and expression amounts of various genes were evaluated with real time PCR.
For orientation: Quantitative PCR measures a nucleic acid by following its amplification.

Series [3] deals with ANP (atrial natriuretic peptide) gene expression. As to the kind of experiment: Real time PCR of cardiomegaly/heart failure marker gene ANP in ventricular tissue, angiotensin II rat model. To be noted: corrected with GAPDH, Ang II + luteolin glycoside, FIG. 7. The procedure:
as §1, §2, §3

The subject of series [4] is BNP (brain natriuretic peptide) gene expression. The series is described as follows: Real time PCR of cardiomegaly/heart failure marker gene BNP in ventricular tissue, angiotensin II rat model. To be noted: corrected with GAPDH, Ang II + luteolin glycoside, FIG. 7. The procedure: as §1, §2, §3
The subject of series [5] is angiotensin II-continuous infusion SD rat. As to the kind of experiment: Angiotensin II-continuous infusion rat model of cardiac fibrosis and cardiomegaly. How it is done:
Angiotensin II was continuously infused to an 8 week-old male SD rat, and the action of luteolin glycoside (luteolin-7-O-glucoside was used) to cardiac fibrosis and cardiomegaly in the acceleration state of oxidative stress was investigated. For the control group, rats were normally raised. For the angiotensin II group (Ang II group), an angiotensin II-continuous infusion pump was implanted subcutaneously in the rat, and continuous infusion was performed for 7 days. For the luteolin glycoside simultaneous-administration group (Ang II+LMG group), a luteolin glycoside-blended feed (3.6 g of luteolin monoglycoside (LMG) was blended per 10 kg of feed) was fed for 3 weeks, then an angiotensin II-continuous infusion pump was implanted subcutaneously, and continuous infusion was performed for 7 days.
as §2

The subject of series [6] is ApoE gene-deficient female mouse (ApoE−/−). The series is described as follows: Acute aneurysm model by angiotensin II-continuous infusion in ApoE gene-deficient mouse. The source says: Angiotensin II was continuously infused (for 16 weeks to 20 weeks) to a 12 week-old ApoE gene-deficient female mouse (ApoE−/−) (about 25 g of body weight) whereby to prepare an acute aneurysm model, and the action of luteolin glycoside (luteolin-7-O-glucoside was used) was investigated. For the control group (n=5), mice were normally raised (saline was continuously infused). For the angiotensin II group ([…]), an angiotensin II-continuous infusion pump was implanted subcutaneously in the mouse, and continuous infusion was performed for 4 weeks. For the luteolin glycoside simultaneous-administration group (Ang II+luteolin group), a luteolin glycoside-blended feed (0.055% of luteolin-7-O-glucoside was blended per feed) was fed for 3 weeks, then an angiotensin II-continuous infusion pump was implanted subcutaneously, and continuous infusion was performed for 4 weeks.
When the mouse was 20 weeks old, the blood pressure and body weight were measured, then the heart, the kidney and the aorta were removed, and generation of aneurysm was observed.

Series [7] relates to CTGF (connective tissue growth factor) gene expression. As to the kind of experiment: Real time PCR of fibrosis marker gene CTGF in ventricular tissue, angiotensin II rat model. The settings on record: corrected with GAPDH, Ang II + luteolin glycoside, FIG. 6. How it is done:
as §1, §2, §3

Experimental findings from US9326990B2, “Heart failure suppressing agent” (THE UNIVERSITY OF TOKYO, priority 2011, dated 2016) are described below.

The structures appear in SMILES notation.

`O=c1cc(-c2ccc(O)c(O)c2)oc2cc(O[C@@H]3O[C@H](CO)[C@@H](O)[C@H](O)[C@H]3O)cc(O)c12` [luteolin glycoside, luteolin-7-O-glucoside]: in series [1], the “oral absorption (plasma luteolin concentration)” value is “remarkably higher”. Besides, the “gene expression of TGF-β1 in ventricular tissue” value in series [2] is “suppression of the expression”. In addition, the “gene expression of ANP in ventricular tissue” value in series [3] is reported as “suppression of the expression”. The “gene expression of BNP in ventricular tissue” value in series [4] is reported as “suppression of the expression”. Moreover, the “blood pressure increased by angiotensin II-continuous administration” value in series [5] (LMG-blended feed (3.6 g per 10 kg feed) 3 weeks, then Ang II infusion 7 days, seventh day, FIG. 1) is given as “did not lower”. Besides, the “fibrosis of the ventricular wall by angiotensin II” value in series [5] (LMG-blended feed, Ang II 7 days, Masson's trichrome staining, FIG. 5) is listed as “remarkably suppressed”. Further, the “ventricular wall thickening by angiotensin II administration” value in series [5] (LMG-blended feed, Ang II 7 days, echocardiographic examination, FIG. 2) is on record as “significantly suppressed”. Besides, the “generation of reactive oxygen in the ventricular wall by angiotensin II” value in series [5] (LMG-blended feed, Ang II 7 days, hydroethidine staining, FIG. 4) was “remarkably suppressed”. Moreover, the blood pressure result in series [6] (0.055% luteolin-7-O-glucoside feed 3 weeks, then Ang II infusion 4 weeks, 20 weeks old, FIG. 8) was “not recognized”. Further, in series [6] (0.055% luteolin-7-O-glucoside feed, Ang II 4 weeks, 20 weeks old, FIG. 8), the body weight entry is “not recognized”. Besides, the “aneurysm formation (appearance)” value in series [6] (0.055% luteolin-7-O-glucoside feed, Ang II 4 weeks, FIG. 9) is reported as “definitely suppressed”. Moreover, the diameter of aneurysm entry in series [6] (0.055% luteolin-7-O-glucoside feed, Ang II 4 weeks, FIG. 10) is on record as “decreased”. Also, the “rupture of the arterial wall elastic fiber” value in series [6] (0.055% luteolin-7-O-glucoside feed, Ang II 4 weeks, FIG. 11) is “suppressed”. Moreover, the “gene expression of CTGF in ventricular tissue” value in series [7] is given as “suppression of the expression”.
